“Also recorded” adds a separate entry of the source. Like-named read-outs stand apart in the source and are kept apart here.
Columns and labels:
PnuTSw = biological target: T1, PnuTSw (Shewanella woodyi, UniProt B1KPL9); assay type: binding; conditions: for Dissociation constant Kd: WT PnuTSw in DDM, pH 8.0
T1 sequence (B1KPL9 1-212): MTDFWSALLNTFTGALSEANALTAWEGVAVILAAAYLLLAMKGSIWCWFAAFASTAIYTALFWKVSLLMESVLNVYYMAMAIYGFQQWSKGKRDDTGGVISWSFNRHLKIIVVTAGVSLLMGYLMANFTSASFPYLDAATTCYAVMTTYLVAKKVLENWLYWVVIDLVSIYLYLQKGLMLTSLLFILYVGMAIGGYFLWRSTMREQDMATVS

[1] = biological target: T2, PnuTSw reconstituted in proteoliposomes (Shewanella woodyi, UniProt B1KPL9); assay type: biochemical; conditions: 1 mM unlabeled analogue in outside buffer, 500 nM [3H]thiamine
T2 sequence (B1KPL9 1-212): T1 sequence (B1KPL9 1-212)

[2] = biological target: T2, PnuTSw reconstituted in proteoliposomes; assay type: biochemical; conditions: proteoliposomes loaded with 1 mM unlabeled ligand
PnuTSw mutant W199A [3] = biological target: T3, PnuTSw mutant W199A (Shewanella woodyi, UniProt B1KPL9, W199A); test: biochemical
PnuTSw mutant W88A [4] = biological target: T4, PnuTSw mutant W88A (Shewanella woodyi, UniProt B1KPL9, W88A); conditions: ITC, 25°C
PnuTSw mutant Y159F [5] = biological target: T5, PnuTSw mutant Y159F (Shewanella woodyi, UniProt B1KPL9, W159F); conditions: ITC, 25°C
PnuTSw mutant Y162F [6] = biological target: T6, PnuTSw mutant Y162F (Shewanella woodyi, UniProt B1KPL9, W162F); conditions: ITC, 25°C
PnuTSw mutant Y188A [7] = biological target: T7, PnuTSw mutant Y188A (Shewanella woodyi, UniProt B1KPL9, Y188A); test: biochemical
PnuTSw mutant W199A [8] = biological target: T3, PnuTSw mutant W199A; conditions: ITC, 25°C
PnuTSw mutant Y77A [9] = biological target: T8, PnuTSw mutant Y77A (Shewanella woodyi, UniProt B1KPL9, Y77A); conditions: ITC, 25°C
PnuTSw mutant W88A [10] = biological target: T4, PnuTSw mutant W88A; conditions: proteoliposomes
PnuTSw mutant Y77A [11] = biological target: T8, PnuTSw mutant Y77A; test: biochemical
PnuTSw mutant Y188A [12] = biological target: T7, PnuTSw mutant Y188A; conditions: ITC, 25°C
PnuTSw mutant Y162F [13] = biological target: T6, PnuTSw mutant Y162F; test: biochemical
PnuTSw mutant W88A [14] = biological target: T4, PnuTSw mutant W88A; test: biochemical
PnuTSw mutant Y159F [15] = biological target: T5, PnuTSw mutant Y159F; test: biochemical
PnuTSw mutant D166A = conditions: ITC, 25°C

T4 sequence (B1KPL9 1-212 W88A): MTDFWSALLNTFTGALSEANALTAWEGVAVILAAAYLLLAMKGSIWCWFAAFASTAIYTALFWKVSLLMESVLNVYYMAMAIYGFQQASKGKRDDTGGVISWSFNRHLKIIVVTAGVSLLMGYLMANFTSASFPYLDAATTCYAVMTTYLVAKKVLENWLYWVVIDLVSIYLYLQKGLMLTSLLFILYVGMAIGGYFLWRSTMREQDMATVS
T5 sequence (B1KPL9 1-212 W159F): as the sequence (B1KPL9 1-212 W88A) above, with A88W, W159F counted along it
T8 sequence (B1KPL9 1-212 Y77A): as the sequence (B1KPL9 1-212 W88A) above, with Y77A, A88W counted along it
T6 sequence (B1KPL9 1-212 W162F): as the sequence (B1KPL9 1-212 W88A) above, with A88W, W162F counted along it
T3 sequence (B1KPL9 1-212 W199A): as the sequence (B1KPL9 1-212 W88A) above, with A88W, W199A counted along it
T7 sequence (B1KPL9 1-212 Y188A): as the sequence (B1KPL9 1-212 W88A) above, with A88W, Y188A counted along it

`Cc1ncc(C[n+]2csc(CCOP(=O)(O)O)c2C)c(N)n1` [TMP, thiamine monophosphate] was tested, and the “Dissociation constant Kd” value (PnuTSw; ITC, 25°C) was “binding could not be detected; also recorded: neither TMP nor TPP could bind; also recorded: No binding”, the “Inhibition of [3H]thiamine uptake” value [1] was “did not inhibit transport” and the “Counter flow of [3H]thiamine (transported substrate or not)” value [2] was “did not trigger accumulation of the label”.
With `Cc1ncc(C[n+]2csc(CCO[P@](=O)(O)OP(=O)(O)O)c2C)c(N)n1` [TPP, thiamine pyrophosphate] the “Dissociation constant Kd” value (PnuTSw; ITC, 25°C) was “binding could not be detected; also recorded: neither TMP nor TPP could bind; also recorded: No binding”, the “Inhibition of [3H]thiamine uptake” value [1] was “did not inhibit transport” and the “Counter flow of [3H]thiamine (transported substrate or not)” value [2] was “did not trigger accumulation of the label”.
`Cc1ncc(C[n+]2csc(CCO)c2C)c(N)n1` [Thiamine, thiamine] was tested, and the Kd (PnuTSw mutant W199A [3]) was 12 ± 1 µM, the “Dissociation constant Kd” value (PnuTSw mutant W88A [4]) was “did not affect the binding of thiamine” and the “Dissociation constant Kd” value (PnuTSw mutant Y159F [5]) was “neither of the mutations affected thiamine binding”. The “Dissociation constant Kd” value (PnuTSw mutant Y162F [6]) was “neither of the mutations affected thiamine binding”, the Kd (PnuTSw) was 12 ± 5 µM and the ΔH (PnuTSw; ITC, 25°C, WT PnuTSw) was -27 ± 22 kJ/mol. The ΔS (PnuTSw; ITC, 25°C, WT PnuTSw) was 5 ± 71 J/mol/K, the Kd (PnuTSw mutant Y188A [7]) was 21 ± 2 µM and the “Dissociation constant Kd” value (PnuTSw mutant W199A [8]) was “did not affect the binding of thiamine”. The “Dissociation constant Kd” value (PnuTSw mutant Y77A [9]) was “did not affect the binding of thiamine”, the “Thiamine transport activity of mutant” value (PnuTSw mutant W88A [10]) was “unable to transport thiamine” and the Kd (PnuTSw mutant Y77A [11]) was 17 ± 2 µM. For the same compound, the “Dissociation constant Kd” value (PnuTSw mutant Y188A [12]) was “did not affect the binding of thiamine”, the Kd (PnuTSw mutant Y162F [13]) was 26 ± 3 µM and the Kd (PnuTSw mutant W88A [14]) was 13 ± 2 µM. For the same compound, the Kd (PnuTSw mutant Y159F [15]) was 23 ± 2 µM, the “Dissociation constant Kd” value (PnuTSw mutant D166A) was “could not be detected” and the “Dissociation constant Kd” value (PnuTSw mutant D166A; listed as thiamine) was “No binding”.
